Data set [1] has as its target T1, 20S proteasome extracted from rat liver, peptidyl-glutamyl-peptide-hydrolyzing (PGPH) enzyme activity (Rattus norvegicus, UniProt P28073+Q9JHW0).
T1 construct: 20S proteasome extracted from rat liver; from tissue; host or cells: rat liver
In words: Proteasome inhibition, PGPH activity, fluorescent peptide Z-leu-leu-Glu-βNA. The class given is biochemical. The following applies: rat liver 20S proteasome, 37° C., 1 h. On the procedure:
(§1) The activities of the proteasome were assayed using fluorescent peptides: Suc-leu-leu-Val-Tyr-AMC (Suc represents succinyl, and AMC represents 7-amino-4-methylcoumarin, purchased from SIGMA) for determining chymotryptic-like (CT-L) activity; Z-Ala-Arg-Arg-AMC (Z represents benzyloxycarbonyl, purchased from Calbiochem) for determining trypsin-like (TL) activity; and Z-leu-leu-Glu-βNA (βNA represents β-naphtylamide, purchased from SIGMA) for determining peptidyl-glutamyl-peptide-hydrolyzing (PGPH) enzyme activity.
(§2) Method for the aforesaid activity assays is as follows: 1 μg of 20S proteasome extracted from rat liver was incubated with a 100 μL solution containing various concentrations of compounds, 50 μM fluorescent peptides and 20 mM Tris-HCl at 37° C. for 1 h, respectively. The fluorescence released from AMC and RNA reagents was measured by a spectrofluorimeter Fluostar OPTIMA and BMG Germany at excitation/emission wavelengths of 380/440 nm and 335/410 nm, respectively. 0.1% DMSO was used as a solvent control. Compared with the fluorescence of solvent control, an inhibition rate was calculated. Said assays used anticancer drug bortezomib (leukemia drug), namely PS341 as compound for positive control.

Data set [2] has as its system U266 (multiple myeloma cell strain). In words: In vitro anti-tumor activity (IC50), standard MTT method. The class given is cell-based. The following applies: Homo sapiens, U-266, 72 h, average of three determinations. How it is done: (§3) HL-60, BXPC-3 and U266 were obtained from the American Type Culture Collection (Manassas, Va.), and BGC-823 (human gastric carcinoma cell strain) was obtained from China Pharmaceutical University.
(§4) Test methods: HL-60 cells were cultured in IMDM medium containing 20% fetal bovine serum at 37° C. in 5% CO2; BGC-823 cells and BXPC-3 cells were cultured in RPMI1640 medium containing 10% fetal bovine serum at 37° C. in 5% CO2; U266 cells were cultured in RPMI1640 medium containing 15% fetal bovine serum at 37° C. in 5% CO2.
(§5) The cell growth was measured by the standard MTT method. A dispersions (150 μL, containing 3000 cells) medium was added into each well of a 96-well plate and allowed to grow, after 24 h, ten kinds of medium (50 μL) containing different concentrations of drugs were added into the corresponding wells, and continued to incubate for 72 h. Then a solution containing 5 mg/ml MTT (20 μL) was added into each well and incubated for another 4 h at 37° C. The plate was then centrifugated at 1000 rpm at 4° C. for 5 min, and the medium in upper layer was carefully discarded. The precipitates were dissolved in 100 μL of DMSO, and absorbance was read with an Infinite M200 (Tecan, Austria) microplate reader at 540 nm.
(§6) The result was expressed as IC50 value, which is the average value of three independent determinations.
(Formazan colour is commonly taken as a measure of viable cells.)

Data set [3] has as its system BXPC-3 (human pancreatic cancer cell strain). Described as above. The following applies: 72 h, average of three determinations. It counts as cell-based. How it is done: as §3, §4, §5, §6
Data set [4] concerns BGC-823 (human gastric carcinoma cell strain). The description is as above. The class given is cell-based. The following applies: 72 h, average of three determinations. How it is done: as §3, §4, §5, §6
The subject of data set [5] is HL-60 (promyelocytic leukemia cell strain). The data set is described as above. The class given is cell-based. Particulars: Homo sapiens, 72 h, average of three determinations. How it is done: as §3, §4, §5, §6
In data set [6] the target is T2, 20S proteasome extracted from rat liver, chymotryptic-like (CT-L) activity (Rattus norvegicus, UniProt P18421+P28075).
T2 construct: 20S proteasome extracted from rat liver; from tissue; host or cells: rat liver
The data set is described as follows: Proteasome inhibition, chymotryptic-like (CT-L) activity, fluorescent peptide Suc-leu-leu-Val-Tyr-AMC. The class given is biochemical. Particulars: rat liver 20S proteasome, 37° C., 1 h. On the procedure:
as §1
Method for the aforesaid activity assays is as follows: 1 μg of 20S proteasome extracted from rat liver was incubated with a 100 μL solution containing various concentrations of compounds, 50 μM fluorescent peptides and 20 mM Tris-HCl at 37° C. for 1 h, respectively. The fluorescence released from AMC and RNA reagents was measured by a spectrofluorimeter Fluostar OPTIMA and BMG Germany at excitation/emission wavelengths of 380/440 nm and 335/410 nm, respectively. 0.1% DMSO was used as a solvent control. Compared with the fluorescence of solvent control, an inhibition rate was calculated.

In data set [7] the test system is HL-60 human leukemia cell. The data set is described as follows: Preliminary anti-tumor screening in vitro, MTT method. It counts as cell-based. On the set-up: key to Test results: +++: inhibition rates at three doses are greater than 50%; ++: inhibition rates at two doses are greater than 50%; +: inhibition rate at one dose is greater than 50%. Particulars: HL-60, MTT; for Test results: number of doses with inhibition > 50%; for inhibition at 0.05 µM / inhibition at 0.5 µM / inhibition at 5 µM: Homo sapiens, read-out: Inhibition rate %. How it is done:
(§7) The test methods used in this test example is the routine method for anti-tumor activities test in pharmaceutical area, for example, referring to the following reference: (J. Immunol Method, 1983, 65, 55).
(§8) Test models: A: MTT method (HL-60 human leukemia); B: SRB method (BGC-823 human gastric cancer); C: SRB method (Bel-7402 human hepatocarcinoma); D: SRB method (KB human nasopharyngeal carcinoma).
(§9) The aforesaid tests were carried out with the compounds of Examples 1-26 in the present invention, test results are shown in Tables 2-5.

Data set [8] has as its system Bel-7402 human hepatocarcinoma cell. In words: Preliminary anti-tumor screening in vitro, SRB method. The following applies: Bel-7402, SRB; for Test results: number of doses with inhibition > 50%; for inhibition at 0.05 µM / inhibition at 0.5 µM / inhibition at 5 µM: Homo sapiens, read-out: Inhibition rate %. It counts as cell-based. On the set-up: key to Test results: +++: inhibition rates at three doses are greater than 50%; ++: inhibition rates at two doses are greater than 50%; +: inhibition rate at one dose is greater than 50%. How it is done: as §7, §8, §9
A general note: Sulforhodamine B stains cellular protein and so reports cell mass.

The test system of data set [9] is KB human nasopharyngeal carcinoma cell. The description is as above. It counts as cell-based. The following applies: for inhibition at 0.05 µM / inhibition at 0.5 µM / inhibition at 5 µM: Homo sapiens, read-out: Inhibition rate %; for Test results: number of doses with inhibition > 50%. On the set-up: key to Test results: +++: inhibition rates at three doses are greater than 50%; ++: inhibition rates at two doses are greater than 50%; +: inhibition rate at one dose is greater than 50%. How it is done:
as §7, §8, §9

For data set [10], the system named is BGC-823 human gastric cancer cell. Described as above. It counts as cell-based. Particulars: BGC-823, SRB; for Test results: number of doses with inhibition > 50%; for inhibition at 0.05 µM / inhibition at 0.5 µM / inhibition at 5 µM: Homo sapiens, read-out: Inhibition rate %. On the set-up: key to Test results: +++: inhibition rates at three doses are greater than 50%; ++: inhibition rates at two doses are greater than 50%; +: inhibition rate at one dose is greater than 50%. How it is done:
as §7, §8, §9

The target in data set [11] is T3, 20S proteasome extracted from rat liver, trypsin-like (TL) activity (Rattus norvegicus, UniProt P40112+Q9JHW0).
T3 construct: 20S proteasome extracted from rat liver; from tissue; host or cells: rat liver
The data set is described as follows: Proteasome inhibition, trypsin-like (TL) activity, fluorescent peptide Z-Ala-Arg-Arg-AMC. It counts as biochemical. Particulars: rat liver 20S proteasome, 37° C., 1 h; read-out: T-L (IC50). How it is done: as §1, §2

A word on the IC50: it is the concentration at which inhibition is half-maximal. One may read the inhibition as the change of the read-out against control, counted positive when it falls. As a reminder, the melting point is the temperature of the solid-liquid transition. `CC(C)C[C@H](NC(=O)[C@H](Cc1ccccc1)NC(=O)[C@H](Cc1ccc(O)cc1)NC(=O)c1cnccn1)B(O)O` [Compound 6d, N-pyrazineformyl-L-tyrosyl-L-phenylalanyl-L-leucine Boronic Acid] registered a melting point of 219 to 221 °C. In [1], this molecule returned an IC50 of 2.5 ± 1.49 nM. The molecule also came in with an IC50 in [2] of 66.2 nM. In addition, the midpoint of inhibition in [3], the IC50, lay at 257 nM. The same molecule registered an IC50 in data set [4] of 2460 nM. The IC50 in data set [5] turned out to be 445 nM. For the same molecule, the IC50 in [6] is 0.263 ± 0.081 nM. In [7], the Test results is given as “+”, the inhibition at 0.05 µM is -21.1%, the inhibition at 0.5 µM was -5.04% and the inhibition at 5 µM was found to be 87.9%. Further, in data set [8], the Test results is “+”, the inhibition at 0.05 µM was determined as 1.7%, the inhibition at 0.5 µM was 8.79% and the inhibition at 5 µM worked out at 90%. In addition, in [9], the inhibition at 0.05 µM was 3.23%, the inhibition at 0.5 µM came out at 17.3%, the inhibition at 5 µM is 96.2% and the Test results is “+”. Moreover, in data set [10], the Test results is “+”, the inhibition at 0.05 µM was 4.33%, the inhibition at 0.5 µM was found to be 46.7% and the inhibition at 5 µM was found to be 97.5%. Further, the IC50 in data set [11] was over 20 nM.

Consider `CC(C)C[C@H](NC(=O)[C@H](CC(C)C)NC(=O)[C@H](Cc1ccc2ccccc2c1)NC(=O)c1cnccn1)B(O)O` [Compound 6m, N-pyrazineformyl-L-naphthylalanyl-L-leucyl-L-leucine Boronic Acid], for which the half-inhibitory concentration (IC50) turned out to be 8.33 ± 2.49 nM in [1]; 120 nM in [2]; 43.5 nM in data set [3]; 1720 nM in data set [4]; 15 nM in [5]; 0.22 ± 0.07 nM in data set [6]. The IC50 in data set [11] is over 20 nM. Also, the Test results in [7] is recorded as “++”; in data set [8], “++”; in data set [9], “++”; in [10], “+++”. For the same molecule, the inhibition at 0.05 µM in data set [7] is 4.61%; in data set [8], 30.3%; in data set [9] it was 40.8%; in [10] it was 60.3%. The inhibition at 0.5 µM came out at 85.2% in data set [7], 57.7% in [8], 86.4% in data set [9] and 81.9% in data set [10]. Moreover, the inhibition at 5 µM in [7] was found to be 87.8%; in data set [8], 95.2%; in [9], 94.7%; in [10], 97%.

In turn, `CC(C)C[C@H](NC(=O)[C@H](Cc1ccc2ccccc2c1)NC(=O)[C@H](Cc1ccc2ccccc2c1)NC(=O)c1cnccn1)B(O)O` [Compound 6h, N-pyrazineformyl-L-naphthylalanyl-L-naphthylalanyl-L-leucine Boronic Acid] displayed a melting point of 145 to 146 °C. In data set [2], this molecule gave an IC50 of 195 nM. Besides, inhibition in [3] was half-maximal at 33.3 nM (IC50). Also, inhibition in data set [4] was half-maximal at 2450 nM (IC50). The molecule further yielded an IC50 in [5] of 19.6 nM. Further, the IC50 in data set [6] turned out to be 0.335 ± 0.078 nM. In data set [7], the Test results is recorded as “++”, the inhibition at 0.05 µM was 13.6%, the inhibition at 0.5 µM was 85.7% and the inhibition at 5 µM is 88.3%. In [8], the Test results is recorded as “+”, the inhibition at 0.05 µM was found to be 6.61%, the inhibition at 0.5 µM is 49.8% and the inhibition at 5 µM worked out at 94.8%. Further, in data set [9], the inhibition at 0.05 µM amounted to 14.2%, the inhibition at 0.5 µM came to 91.8%, the inhibition at 5 µM came to 97.4% and the Test results was “++”. In data set [10], the Test results is “++”, the inhibition at 0.05 µM is 44.9%, the inhibition at 0.5 µM stood at 88.1% and the inhibition at 5 µM is 97.6%. The IC50 in [11] was over 20 nM.

(Values after US9421237B2, “Tripeptide boronic acid or boronic ester, preparative method and use thereof” (PEKING UNIVERSITY, priority 2009, dated 2016).)
